Assay results reported in patent US7470664.
Read-outs that look alike come from different tables or passages of the source.

Conditions: 19-membered ring

| Structure (SMILES) | ring closure, isolated yield (from C=CCCCOC(=O)N[C@@H](CCCC)C(=O)N1C[C@H](OC(=O)N2Cc3cccc(C=C)c3C2)C[C@H]1C(=O)OC, rcm bond, Zhan catalyst I (RC-301), DCE, 5.5 mM, 100.0 °C) [%] | ring closure, isolated yield (from COC(=O)[C@@H]1C[C@@H](OC(=O)N2Cc3cccc(C#CCCCOC(=O)N[C@H](C(=O)O)C(C)(C)C)c3C2)C[NH2+]1, amide bond, HATU/Et3N/DMAP, DCM, 42.0 mM, 25.0 °C, 2 steps) [%] |
| --- | --- | --- |
| CCCC[C@@H]1NC(=O)OCCCC=Cc2cccc3c2CN(C3)C(=O)O[C@@H]2C[C@@H](C(=O)OC)N(C2)C1=O | 79 |  |
| COC(=O)[C@@H]1C[C@@H]2CN1C(=O)[C@H](C(C)(C)C)NC(=O)OCCCC#Cc1cccc3c1CN(C3)C(=O)O2 |  | 43 |
